Experimental data reported in patent US6551774B1, “Diagnostic methods for conditions associated with elevated cellular levels of telomerase activity” (Board of Regents, The University of Texas System, priority 1992, dated 2003).

Key:
[1] = system: IMR-90 human lung fibroblasts; test: Proliferative lifespan of IMR-90 fibroblasts fed oligonucleotides (Example 1); format: cell-based
Description: The efficacy of the CTO-12 oligonucleotide (5′-[…]-3′ Seq. ID No. 2) to reduce telomere shortening associated with cellular senescence (FIG. 1) was studied using target cells cultured under standard cell culture conditions in minimal essential medium supplemented with 10% fetal calf serum. The cells were subcultivated every four days by trypsinization upon reaching confluency and were fed new medium at subcultivation or every two days, whichever came first. Cells at various population doubling levels were seeded at 10,000 cells per well and fed medium containing oligonucleotides at various concentrations. oligonucleotides studied were the cytidine-rich terminal oligonucleotide (CTO-12), guanidine-rich terminal oligonucleotide-12 bp (GTO-12, having the sequence 5′-[…]-3′ (SEQ ID NO:19), and a 12 base pair randomer with a random nucleotide in every position. As an additional control, cells were fed identical medium without oligonucleotide. Cells were fed oligonucleotide every 48 hours from 10×stocks. (Such oligonucleotides may be modified to enhance stability, e.g., with phosphorothioates, dithioate and 2-O-methyl RNA.) In the case of phosphorothioates it would be desirable to use longer CTO primers such as 5′-[…]-3′(SEQ ID NO:20), 5′-[…]-3′(SEQ ID NO:21), or 5′-[…]-3′(SEQ ID NO:22). […]

[2] = system: MDA 157 human breast cancer cells; test: Proliferation of MDA 157 cancer cells fed oligonucleotides (Example 2); format: cell-based; settings: 1.0 μM CTO-12
Method: Specifically, MDA 157 human breast cancer cells with an immortal phenotype were seeded at 10,000 cells per well in 12 well tissue culture dishes and fed medium only or medium supplemented with GTO-12 (at 1.0 μM, 0.1 μM, and 0.01 μM). […] Cells fed the GTO-12 oligonucleotide, at 1.0 μM, however, ceased to proliferate after less than 10 doubling. […] The lack of effect of the G+C mixture may reflect the CTO-12 oligonucleotide, competing with or base pairing with the GTO-12 oligonucleotide, this preventing its inhibitory effect on the cancer cell telomerase.

HME31E6 cells [3] = test: TRF shortening in HME31E6 cells cultured with CTO (Example 10); format: cell-based, human; settings: 3, 10, 30 and 100 μM, between PDL 36 and 50
Description: As in Example 1, the change in proliferative lifespan and rate of telomere shortening in cultured mammary epithelial cells treated with the indicated amounts of CTO (occasionally referred to as C-Rich Terminal Repeat (CTR)) versus control random oligonucleotides. Normal human mammary epithelial cells from a donor (31) were infected with the E6 gene of human papilloma virus 16. This gene product binds p53 protein and permits HME31 cells to have extended life span by proliferating from PDL 42 to PDL 62 when crisis occurs. During this extended lifespan period the TRFs shorten from an average of approximately 5 kb to 2.5 kb (compare in FIG. 12 HME31 PD 40 to HME31E6 PD 68).
As controls the cells were cultured without oligonucleotides (nil) or with 30 μM random oligonucleotide. […] This is most easily seen by examining the subpopulation of telomere TRFs that migrate more slowly than the rest, giving a discrete trailing band. Cells were maintained in logarithmic growth with medium changed and fresh oligonucleotide added three times per week.

HME31E6 cells [4] = test: Replicative lifespan of HME31E6 cells cultured with CTR (Example 10); format: cell-based, human; settings: 30 μM and 100 μM
Method: Human mammary epithelial cells expressing HPV16 E6 bypass M1 and have extended replicative lifespan. HME31 Cells normally senesce at PDL 42-45. When expressing […] they will bypass M1 and divide until they reach crisis (M2) at PDL 53-62. The TRFs in HME31 (E6) cells at PDL 40 are approximately 5-6 Kb while at PDL 62 they are 3-4 Kb (see FIG. 12). […] As controls, the cells were cultured without oligonucleotide (control), or with a 30 μM random oligonucleotide with the base content matched to the CTR oligonucleotide. […] The control cells divided approximately 20 times during the experiment, whereas the CTR-treated cells divided at least 40-50 times.

IMR-90 lung fibroblasts = test: Life span of IMR-90 lung fibroblasts treated with phosphodiester CTO (Example 11); format: cell-based, human
Method: Referring to FIG. 14, IMR-90 lung fibroblasts TRFat PDL 30 were treated with 10 μM, 30 μM or 100 μM phosphodiester CTO or with only media addition (control). The cells were cultured in medium containing regular defined supplemented calf serum. The cells were passaged in 24 well dishes and subcultivated by trypsinization upon reaching confluency at 25,000 cells per well. The cells were fed medium containing oligonucleotides at various concentrations daily. As a control, cells were fed identical medium without oligonucleotides. As is illustrated in FIG. 14, there was approximately a 12-15% extension of total life span with CTO. In these experiments the control cells divided approximately 15-18 times during the experiment, whereas the treated cells divided 23-26 times. IMR-90 telomeres shorten approximately 50 b.p. per division and the TRF length of the control IMR-90 fibroblasts at senescence was approximately 9 kb. Since the 100 μM CTO-treated IMR-90 cells senesced at PDL 55, the predicted difference in the rate of TRF loss between the control and the 100 μM CTO (9 kb vs 9.4 kb) is too small to be resolved using current techniques.

SW26 cells = test: Frequency of escape from crisis (immortalization) of SW26 cells, fluctuation analysis; format: cell-based, human; settings: bleomycin sulfate 25 μg/ml for two hours; LNL6 infection with 2 μg/ml polybrene
Description: The frequency of escape from crisis (e.g., the immortalization frequency of T-antigen expressing cells) was estimated using an approach based on what is essentially a fluctuation analysis as previously described (Shay, J. W., and Wright, W. E. (1989) Exp. Cell Res. 184, 109-118). SW26 cells (a clone isolated from IMR 90 normal human lung fibroblasts transfected with a vector expressing SV40 large T antigen) were expanded approximately 15 PDL's before crisis into multiple series at a constant cell density of 6667 cells/cm^2. Each series was subsequently maintained as a separate culture, so that at the end of the experiment the fraction of each series that gave rise to immortal cell lines could be determined. Cultures were split at or just prior to confluence at 6667 cells/cm^2. […]
The remainder of the dishes were used as controls (70 dishes) or infected with LNL6 defective retrovirus (100 dishes). […] Within a few days after infection, all control and experimental dishes were counted and each dish contained 1-2×10^6 cells. The PDL of each dish was calculated and cells were then replated at 0.33×10^6 in 50 cm^2 dishes and maintained separately to conduct the fluctuation analysis.
Immortalization is expressed as the number of immortal lines per number of culture series, each series being derived from a single dish at the initiation of the experiment. […]

IMR-90 SW26 cells = test: Cell death of IMR-90 SW26 cells on bleomycin sulfate treatment; format: cell-based, human; settings: 25 μg/ml for two hours in serum free medium
Method: SW 26 cells enter crisis at approximately PDL 82-85. Numerous vials of SW26 cells (8×10^6 cells/vial) were frozen at PDL 71, and testing verified that spontaneous immortalization events had not yet occurred. Five vials were thawed, scaled up for 4 days to approximately 10^8 cells (thus to approximately PDL 74), then trypsinized and combined into a single pool of cells in 40 ml of medium and distributed into 200 10 cm^2 dishes. Thirty dishes were treated with 25 μg/ml bleomycin sulfate (a chemical mutagen) for two hours in serum free medium one day later.

Row | Substance | doublings of continued proliferation more than control cells ([1]; 1.0 μM oligonucleotide, cells seeded at PD45) | population doubling at which replicative senescence was reached ([1]; CTO-12 at less than 1.0 μM (0.1 μM), seeded at PD45) | proliferation phenotype [2] | TRF shortening compared to nil control and 30 μM random oligonucleotide (HME31E6 cells [3]) | replicative lifespan compared to control and 30 μM random oligonucleotide (HME31E6 cells [4]; started at PDL 36) | number of cell divisions during the experiment (HME31E6 cells [4]; started at PDL 36, defined medium without serum) | number of cell divisions during the experiment (IMR-90 lung fibroblasts; 10 μM, 30 μM or 100 μM, from PDL 30) | extension of total life span (IMR-90 lung fibroblasts; 10 μM, 30 μM or 100 μM, from PDL 30, fed daily) | PDL at senescence (IMR-90 lung fibroblasts; 100 μM) | Frequency (probability of obtaining an immortal cell line based on the number of cells plated at each passage) (SW26 cells) | Immortalization (number of immortal lines per number of culture series) (SW26 cells) | cells dying (IMR-90 SW26 cells)
1 | 5′-CCCTAACCCTAA-3′ [CTO-12] | approximately 10 doubling | about 52 population doubling | continued to express the immortal phenotype | dose related retardation of TRF shortening | dose-related extension of the replicative lifespan | 40-50 times | 23-26 times | 12-15% | 55 PDL | – | – | –
2 | bleomycin sulfate | – | – | – | – | – | – | – | – | – | 7.7 × 10^−7 | 7/27 | approximately 50%
